In brackets after ≈: the same amount, converted by molar mass. Where two headings read alike, the source gives them in different places.
Assays:
[1] = test system: Mycobacterium smegmatis (mc(2)155); experiment: Broth microdilution MIC assay, Mycobacterium smegmatis
[2] = test system: vancomycin-resistant Enterococcus faecium (ATCC51559); experiment: microbe, parasite or virus in culture; type: cell-based
[3] = test system: platensimycin-resistant Staphylococcus aureus (from MRSA COL); experiment: Broth microdilution MIC assay, platensimycin-resistant MRSA; type: cell-based; settings: 24 h, read-out: Antibacterial activity, MRSA strains with additional resistance, P (platensimycin), MIC class
[4] = test system: moenomycin-resistant Staphylococcus aureus (from MRSA COL); experiment: Broth microdilution MIC assay, moenomycin-resistant MRSA; type: cell-based; settings: 24 h, read-out: Antibacterial activity, MRSA strains with additional resistance, M (moenomycin), MIC class
[5] = test system: Streptococcus pneumoniae (Chester, ATCC49619); experiment: Broth microdilution MIC assay, Streptococcus pneumoniae; type: cell-based; settings: for Antibacterial activity Streptococcus pneumoniae: MIC class score, MIC100, broth microdilution; for MIC: Streptococcus pneumoniae, ATCC49619, read-out: Antibacterial activity, SP (Streptococcus pneumoniae), MIC class
[6] = test system: Bacillus subtilis (Marburg strain, ATCC6051); experiment: microbe, parasite or virus in culture; type: cell-based; settings: ATCC6051, read-out: Antibacterial activity, BS (Bacillus substilis), MIC class
[7] = test system: daptomycin-resistant Staphylococcus aureus (from MRSA COL); experiment: Broth microdilution MIC assay, daptomycin-resistant MRSA; type: cell-based; settings: 24 h, read-out: Antibacterial activity, MRSA strains with additional resistance, D (daptomycin), MIC class
[8] = test system: linezolid-resistant Staphylococcus aureus (from MRSA COL); experiment: Broth microdilution MIC assay, linezolid-resistant MRSA; type: cell-based; settings: 24 h, read-out: Antibacterial activity, MRSA strains with additional resistance, L (linezolid), MIC class
[9] = test system: Enterococcus faecalis (ATCC29212); experiment: Broth microdilution MIC assay, Enterococcus faecalis; type: cell-based; settings: read-out: Antibacterial activity, EFs (Enterococcus faecalis), MIC class
[10] = test system: MRSA (COL) resistant to triclosan; experiment: Broth microdilution MIC assay, triclosan-resistant MRSA; settings: Staphylococcus aureus, read-out: Antibacterial activity, MRSA strains with additional resistance, T (triclosan), MIC class
[11] = test system: vancomycin-resistant Staphylococcus aureus (from MRSA COL); experiment: Broth microdilution MIC assay, vancomycin-resistant MRSA; type: cell-based; settings: 24 h, read-out: Antibacterial activity, MRSA strains with additional resistance, V (vancomycin), MIC class
[12] = test system: vancomycin-resistant Enterococcus faecalis (ATCC51575); experiment: microbe, parasite or virus in culture; type: cell-based
[13] = test system: Staphylococcus epidermidis (PCI 1200, ATCC12228); experiment: Broth microdilution MIC assay, Staphylococcus epidermidis; type: cell-based; settings: read-out: Antibacterial activity, SE (Staphylococcus epidermidis), MIC class
[14] = test system: Staphylococcus aureus MSSA (Newman); experiment: Broth microdilution MIC assay, Staphylococcus aureus MSSA (Newman); type: cell-based; settings: MIC class score, MIC100, broth microdilution, Newman strain
[15] = test system: Staphylococcus aureus MRSA (COL); experiment: Broth microdilution MIC assay, Staphylococcus aureus MRSA (COL); type: cell-based; settings: MIC class score, MIC100, broth microdilution, COL strain
[16] = test system: Enterococcus faecium (AGR15, ATCCBAA-2127); experiment: Broth microdilution MIC assay, Enterococcus faecium; type: cell-based; settings: ATCCBAA2127, read-out: Antibacterial activity, EFm (Enterococcus faecium), MIC class
[17] = test system: Escherichia coli TolC mutant strain ΔtolC; type: cell-based
[18] = ATCC51559, vancomycin-resistant Enterococcus faecium, read-out: Antibacterial activity, VREFm (vancomycin-resistant EFm), MIC class
[19] = Enterococcus faecium, ATCC51559, read-out: Antibacterial activity, VREFm (vancomycin-resistant EFm), MIC class
[20] = ATCC51575, vancomycin-resistant Enterococcus faecalis, read-out: Antibacterial activity, VREFs (vancomycin-resistant EFs), MIC class

Compound	Antibacterial activity, MS (Mycobacterium smegmatis), MIC class [1]	MIC [2, 18] [µg/mL]	MIC [3] [µg/mL]	Antibacterial activity Streptococcus pneumoniae [5]	MIC [7] [µg/mL]	MIC [8] [µg/mL]	MIC [5] [µg/mL]	MIC [9] [µg/mL]	MIC [10] [µg/mL]	MIC [12, 20] [µg/mL]	also measured
Cc1nc(-c2ccc(-c3ccc(Cl)cc3Cl)o2)[nH]c1-c1ccccc1 [compound 1]	2 (MIC100 of 11-20 μg/ml)	20 to 50 (≈ 54.2 to 135 µM)	3 to 10 (≈ 8.12 to 27.1 µM)								MIC [4]: 3 to 10 µg/mL (≈ 8.12 to 27.1 µM)
Cc1[nH]c(-c2ccc(-c3ccc(Cl)cc3)s2)nc1-c1ccccc1 [compound 6]	2 (MIC100 of 11-20 μg/ml)			3 (MIC100 of 2-5 μg/ml)							MIC [6]: 11 to 20 µg/mL (≈ 31.4 to 57 µM)
Cc1nc(-c2ccc(-c3ccccc3OC(F)(F)F)o2)[nH]c1-c1ccccc1Cl [compound 19]	2 (MIC100 of 11-20 μg/ml)				3 to 10 (≈ 7.16 to 23.9 µM)	3 to 10 (≈ 7.16 to 23.9 µM)	< 1				MIC [2, 19]: 20 to 50 µg/mL (≈ 47.8 to 119 µM)
Cc1[nH]c(-c2ccc(-c3ccccc3OC(F)(F)F)o2)nc1-c1ccc(Cl)cc1 [compound 24]			11 to 20 (≈ 26.3 to 47.8 µM)		1 to 3 (≈ 2.39 to 7.16 µM)			20 to 50 (≈ 47.8 to 119 µM)	1 to 3 (≈ 2.39 to 7.16 µM)	20 to 50 (≈ 47.8 to 119 µM)	MIC [11]: 1 to 3 µg/mL (≈ 2.39 to 7.16 µM)
Cc1[nH]c(-c2ccc(-c3ccccc3OC(F)(F)F)o2)nc1Cc1ccc(Br)cc1 [compound 30, 4-(4-Bromo-benzyl)-5-methyl-2-[5-(2-trifluoromethoxy-phenyl)-furan-2-yl]-1H-imidazole]		20 to 50 (≈ 41.9 to 105 µM)	20 to 50 (≈ 41.9 to 105 µM)		1 to 3 (≈ 2.1 to 6.29 µM)				11 to 20 (≈ 23 to 41.9 µM)		MIC [13]: 11 to 20 µg/mL (≈ 23 to 41.9 µM)
Cc1nc(-c2ccc(-c3ccc(Cl)cc3C(F)(F)F)o2)[nH]c1-c1ccccc1 [compound 32]		20 to 50 (≈ 49.7 to 124 µM)		3 (MIC100 of 2-5 μg/ml)			2 to 5 (≈ 4.97 to 12.4 µM)				MIC [6]: 3 to 10 µg/mL (≈ 7.45 to 24.8 µM)
Cc1nc(-c2ccc(-c3cccc(OC(F)(F)F)c3)o2)[nH]c1-c1ccccc1 [compound 34]	2 (MIC100 of 11-20 μg/ml)	20 to 50 (≈ 52 to 130 µM)	11 to 20 (≈ 28.6 to 52 µM)	3 (MIC100 of 2-5 μg/ml)			2 to 5 (≈ 5.2 to 13 µM)	20 to 50 (≈ 52 to 130 µM)	3 to 10 (≈ 7.81 to 26 µM)		MIC [4]: 3 to 10 µg/mL (≈ 7.81 to 26 µM)
Cc1nc(-c2ccc(-c3ccc(C(F)(F)F)cc3)o2)[nH]c1-c1ccccc1 [compound 45]					1 to 3 (≈ 2.71 to 8.14 µM)	1 to 3 (≈ 2.71 to 8.14 µM)	< 1			20 to 50 (≈ 54.3 to 136 µM)	MIC [11]: 1 to 3 µg/mL (≈ 2.71 to 8.14 µM)
Cc1[nH]c(-c2ccc(-c3ccc(C(F)(F)F)c(Cl)c3)o2)nc1-c1ccc(F)cc1 [compound 49]				3 (MIC100 of 2-5 μg/ml)	1 to 3 (≈ 2.38 to 7.13 µM)	11 to 20 (≈ 26.1 to 47.5 µM)	2 to 5 (≈ 4.75 to 11.9 µM)	11 to 20 (≈ 26.1 to 47.5 µM)	1 to 3 (≈ 2.38 to 7.13 µM)		MIC [13]: 11 to 20 µg/mL (≈ 26.1 to 47.5 µM); Antibacterial activity Staphylococcus aureus (MSSA) [14]: 3 (MIC100 of 3-10 μg/ml); Antibacterial activity Staphylococcus aureus (MRSA) [15]: 2 (MIC100 of 11-20 μg/ml); MIC [2, 19]: 20 to 50 µg/mL (≈ 47.5 to 119 µM); MIC ([12]; Enterococcus faecalis, ATCC51575, read-out: Antibacterial activity, VREFs (vancomycin-resistant EFs), MIC class): 20 to 50 µg/mL (≈ 47.5 to 119 µM); MIC [16]: 20 to 50 µg/mL (≈ 47.5 to 119 µM)
Cc1[nH]c(-c2ccc(-c3cccc(F)c3C)o2)nc1-c1ccccc1 [compound 60]	2 (MIC100 of 11-20 μg/ml)			3 (MIC100 of 2-5 μg/ml)	1 to 3 (≈ 3.01 to 9.03 µM)	1 to 3 (≈ 3.01 to 9.03 µM)		20 to 50 (≈ 60.2 to 150 µM)			
FC(F)(F)Oc1ccccc1-c1ccc(-c2nc(Cl)c(-c3ccccc3)[nH]2)o1 [compound 64]					1 to 3 (≈ 2.47 to 7.41 µM)		< 1				Antibacterial activity Staphylococcus aureus (MSSA) [14]: 2 (MIC100 of 11-20 μg/ml); MIC [11]: 1 to 3 µg/mL (≈ 2.47 to 7.41 µM); MIC [4]: 1 to 3 µg/mL (≈ 2.47 to 7.41 µM)
Cc1ccccc1-c1c[nH]c(-c2ccc(-c3ccccc3OC(F)(F)F)o2)n1 [compound 66]	2 (MIC100 of 11-20 μg/ml)	20 to 50 (≈ 52 to 130 µM)	11 to 20 (≈ 28.6 to 52 µM)		1 to 3 (≈ 2.6 to 7.81 µM)	1 to 3 (≈ 2.6 to 7.81 µM)	< 1			20 to 50 (≈ 52 to 130 µM)	Antibacterial activity Staphylococcus aureus (MSSA) [14]: 3 (MIC100 of 3-10 μg/ml); Antibacterial activity Staphylococcus aureus (MRSA) [15]: 2 (MIC100 of 11-20 μg/ml)
CN(C)Cc1[nH]c(-c2ccc(-c3ccccc3C(F)(F)F)o2)nc1-c1ccccc1 [compound 70]		11 to 20 (≈ 26.7 to 48.6 µM)		3 (MIC100 of 2-5 μg/ml)	3 to 10 (≈ 7.29 to 24.3 µM)		2 to 5 (≈ 4.86 to 12.2 µM)	11 to 20 (≈ 26.7 to 48.6 µM)		11 to 20 (≈ 26.7 to 48.6 µM)	MIC [13]: 11 to 20 µg/mL (≈ 26.7 to 48.6 µM); Antibacterial activity, EC Δ (Escherichia coli ΔtoIC), MIC class [17]: 3 (MIC100 of 3-10 μg/ml); MIC [16]: 11 to 20 µg/mL (≈ 26.7 to 48.6 µM)

Reference: patent US10456379B2, “Imidazole-based antimicrobial agents” (priority 2014, dated 2019)
